The source of these data is patent publication US6433151B1, “Erythromycin derivatives, a process for their preparation and their use as medicaments” (Aventis Pharma S.A., priority 1998, dated 2002).

Common to all, as to assay: Method of dilutions in a liquid medium (MIC)
Assay type in all cases: cell-based

Assay [1] has as its system E. faecalis 02D2DU15c. Particulars: ery R, reading after 24 hours. The protocol:
(§1) Method of Dilutions in a Liquid Medium
(§2) A series of tubes in which the same amount of sterile nutrient medium is distributed is prepared. Increasing amounts of the product to be studied are distributed in each tube, and each tube is then seeded with a strain of bacteria.
(§3) After incubation for twenty-four hours in an oven at 37° C., the inhibition of growth is evaluated by transillumination, from which the minimum inhibitory concentrations (MIC), expressed in micrograms/cm^3, can be determined.
(§4) The following results were obtained with the product from example 1 and from example 2 (reading taken after 24 hours).

Assay [2] relates to E. faecalis 02D2UC1. The following applies: E. faecalis 02D2UC1, ery S; reading after 24 hours. As for the experimental part: as §1, §2, §3, §4
The test system of assay [3] is E. faecium 02D3HT1. The following applies: E. faecium 02D3HT1, Ery S; reading after 24 hours. The protocol:
as §1, §2, §3, §4

The test system of assay [4] is S. agalactiae 02B1HT1. Particulars: S. agalactiae 02B1HT1, ery S; reading after 24 hours. The protocol:
as §1, §2, §3, §4

The test system of assay [5] is S. agalactiae 02B1SJ1c. Particulars: ery R, reading after 24 hours. The protocol: as §1, §2, §3, §4
In assay [6] the test system is S. aureus 011GO25I. The following applies: oxa S ery R, reading after 24 hours. As for the experimental part:
as §1, §2, §3, §4

The test system of assay [7] is S. aureus 011UC4. The following applies: reading after 24 hours. The protocol: as §1, §2, §3, §4
Assay [8] relates to S. epidermidis 012GO11I. Particulars: oxa S ery R, reading after 24 hours. As for the experimental part:
as §1, §2, §3, §4

The test system of assay [9] is S. mitis 02MitCB1. Particulars: S. mitis 02MitCB1, Ery S; reading after 24 hours. The protocol:
as §1, §2, §3, §4

The subject of assay [10] is S. mitis 02MitGR16I. Particulars: ery R, reading after 24 hours. As for the experimental part: as §1, §2, §3, §4
Assay [11] deals with S. pneumoniae 030CR18c. The following applies: ery R, reading after 24 hours. The protocol:
as §1, §2, §3, §4

For assay [12], the system named is S. pneumoniae 030GR20. The following applies: S. pneumoniae 030GR20, ery S; reading after 24 hours. The protocol:
as §1, §2, §3, §4

Assay [13] relates to S. pneumoniae 030PW23c. Particulars: ery R, reading after 24 hours. The protocol:
as §1, §2, §3, §4

For assay [14], the system named is S. pneumoniae 030R01I. Particulars: ery R, reading after 24 hours. As for the experimental part: as §1, §2, §3, §4
The test system of assay [15] is S. pneumoniae 030SJ1c. The following applies: ery R, reading after 24 hours. The protocol:
as §1, §2, §3, §4

For assay [16], the system named is S. pneumoniae 030SJ51. The following applies: S. pneumoniae 030SJ51, ery R; reading after 24 hours. As for the experimental part:
as §1, §2, §3, §4

Assay [17] concerns S. pneumoniae 032UC1. Particulars: S. pneumoniae 032UC1, ery S; reading after 24 hours. The protocol:
as §1, §2, §3, §4

Assay [18] has as its system S. pyogenes 02A1UC1. The following applies: S. pyogenes 02A1UC1, ery S; reading after 24 hours. The protocol:
as §1, §2, §3, §4

Assay [19] relates to S. sanguis 02SgGr10I. Particulars: ery R, reading after 24 hours. As for the experimental part:
as §1, §2, §3, §4

Assay [20] concerns Streptococcus gr. G 02GOGR5. The following applies: Streptococcus gr. G 02GOGR5, Ery S; reading after 24 hours. The protocol: as §1, §2, §3, §4
The mark [21] stands for this setting: S. aureus 011UC4 + serum 50%, ery S.

Where only a bound is given, the exact number is not on record here.

As for `CCC1OC(=O)C(C)C(=O)C(C)C(OC2OC(C)CC(NC)C2O)C(C)(OC)CC(C)C(=O)C(C)C2N(NCCCc3ccnc4ccccc34)C(=O)OC12C` [Ex. 2, N-Demethyl-11,12-dideoxy-3-de((2,6-dideoxy-3-C-methyl-3-O-methyl-alpha-L-ribohexopyranosyl)oxy)-6-O-methyl-3-oxo-12,11-(oxycarbonyl(2-(3-(4-quinolinyl)-propyl)-hydrazono))-erythromycin], the “minimum inhibitory concentrations (MIC)” value in [1] was >20 micrograms/cm^3; in assay [2] it was 0.040 micrograms/cm^3; in assay [3], 0.040 micrograms/cm^3; in [4] it was 0.020 micrograms/cm^3; in assay [5], 0.150 micrograms/cm^3; in [6] it was 0.600 micrograms/cm^3. The “minimum inhibitory concentrations (MIC)” value in assay [7] (setting [21]) is 0.150 micrograms/cm^3; in assay [7] (S. aureus 011UC4, ery S), 0.080 micrograms/cm^3; in [8] it was 0.300 micrograms/cm^3; in assay [9], “<=0.01 micrograms/cm^3”; in assay [10] it was 0.080 micrograms/cm^3; in [11] it was 2.500 micrograms/cm^3. Also, the “minimum inhibitory concentrations (MIC)” value is reported as “<=0.01 micrograms/cm^3” in assay [12]; 0.080 micrograms/cm^3 in assay [13]; 0.300 micrograms/cm^3 in [14]; 0.150 micrograms/cm^3 in [15]; 0.080 micrograms/cm^3 in [16]; “<=0.01 micrograms/cm^3” in [17]. Moreover, the “minimum inhibitory concentrations (MIC)” value amounted to 0.040 micrograms/cm^3 in assay [18], 0.150 micrograms/cm^3 in [19] and 0.040 micrograms/cm^3 in [20].
As to `CCC1OC(=O)C(C)C(=O)C(C)C(OC2OC(C)CC(NC)C2O)C(C)(OC)CC(C)C(=O)C(C)C2N(CCCCn3cnc(-c4cccnc4)c3)C(=O)OC12C` [Ex. 1, N-Demethyl-11,12-dideoxy-3-de[(2,6-dideoxy-3-C-methyl-3-O-methyl-alpha-L-ribohexopyranosyl)-oxy]-6-O-methyl-3-oxo-12,11-[oxycarbonyl[[4-[4-(3-pyridinyl)-1H-imidazol-1-yl]butyl]imino]]-erythromycin], the “minimum inhibitory concentrations (MIC)” value is reported as >40 micrograms/cm^3 in [1]; 0.080 micrograms/cm^3 in assay [2]; 0.080 micrograms/cm^3 in assay [3]; “<=0.02 micrograms/cm^3” in assay [4]; 0.600 micrograms/cm^3 in [5]; 5.000 micrograms/cm^3 in assay [6]. Further, the “minimum inhibitory concentrations (MIC)” value stood at 0.040 micrograms/cm^3 in assay [7] (setting [21]); 0.300 micrograms/cm^3 in assay [7] (S. aureus 011UC4, ery S); 0.150 micrograms/cm^3 in assay [8]; 0.080 micrograms/cm^3 in assay [9]; 0.080 micrograms/cm^3 in [10]; 10.000 micrograms/cm^3 in [11]. Further, the “minimum inhibitory concentrations (MIC)” value was “<=0.02 micrograms/cm^3” in assay [12]; 0.150 micrograms/cm^3 in assay [13]; 0.150 micrograms/cm^3 in [14]; 0.080 micrograms/cm^3 in assay [15]; 0.080 micrograms/cm^3 in assay [16]; “<=0.02 micrograms/cm^3” in assay [17]. The “minimum inhibitory concentrations (MIC)” value amounted to 0.800 micrograms/cm^3 in assay [18], 0.150 micrograms/cm^3 in assay [19] and 0.080 micrograms/cm^3 in [20].
